Laboratory results as given in US7754852B2, “Natriuretic polypeptides” (Mayo Foundation for Medical Education and Research, priority 2007, dated 2010).
Where a SMILES comes first, the peptide text is derived from it. Bridges are numbered along the chain shown (N, C = ends). Where no end group is shown, it is not given here.

What was measured:
[1] = system: normal anesthetized dogs; assay: Cardiorenal function in normal anesthetized dogs, consecutive i.v. infusions of 10, 50 and 100 ng/kg/minute; type: in vivo, dog
Experimental: Cardiorenal function was assessed in three normal anesthetized dogs. […] Tubular Na^+ reabsorption and GFR were assessed by clearance of Li^+ and inulin, respectively. Neurohormones were quantified by radioimmunoassays. Data were analyzed by repeated measures ANOVA followed by Dunnett's test.

[2] = system: normal anesthetized dogs; assay: Hemoconcentrating effects (hematocrit) of i.v. infusion at 14 pmol/kg/minute in normal anesthetized dogs; type: in vivo, dog
Experimental: Three human NPs (BNP, CNP, URO, and CU-NP were studied to evaluate their effects on vascular permeability as manifested by an increase in hematocrit. Normal anesthetized dogs received i.v. infusions of BNP (n=7), CNP (n=6), URO (n=5), or CU-NP (n=6) at 14 pmol/kg/minute. Blood was collected in EDTA tubes on ice and centrifuged. Data are reported for base-line and at 60 minutes of infusion. In addition to increasing hematocrit (Table 5), CU-NP reduced PCW pressure in vivo (baseline 6±0.9 mmHg, 60 minutes 3±0.9 mmHg; P<0.05). Thus, hemoconcentrating effects of CU-NP may contribute to its cardiac-unloading actions in vivo.

[3] = system: isolated canine glomeruli; assay: cGMP stimulation in isolated canine glomeruli; type: cell-based; conditions: 10^−5 M
Experimental: Experiments were conducted to determine whether CU-NP directly stimulates cGMP in isolated glomeruli, and to compare the cGMP-activating actions of CU-NP with CNP, URO, and CNP-C, which consisted of the full-length 22-AA of CNP with a duplicate of the N-terminus fused in the C-terminal position. Glomeruli were isolated upon harvest of normal canine kidneys. CU-NP, CNP, URO, and CNP-C (10^−5 M) were incubated with glomeruli vs. control. Cyclic GMP was measured by RIA, with correction for protein levels. CU-NP and URO elicited greater cGMP responses than respective controls (P<0.01), but without difference between groups. CU-NP and URO stimulated greater cGMP responses vs. CNP and vs. CNP-C (P<0.001).

[4] = system: human aortic endothelial cells (HAEC); assay: cGMP response in HAEC in the absence or presence of NPR-B antibody; type: cell-based; conditions: 10^−6 M, 10 minutes
Experimental: (§1) cGMP responses to the 3 peptides also were assessed in glomeruli isolated from canine kidneys upon harvest, in the presence or absence of an NPR-A antagonist, […] (1 μM), or an NPR-B antagonist, […] (1 μM), or both antagonists added sequentially (A71915 followed by […], 1 μM final concentration for both). To confirm the involvement of NPR-B in the cGMP response to CU-NP, additional experiments were conducted using human aortic endothelial cells (HAEC). Cyclic GMP response was determined by incubating CU-NP (10^-6 M) for 10 minutes in the absence or presence of an antibody to the ligand-binding domain of NPR-B. In vitro data (mean±SEM) were analyzed by one-way ANOVA followed by Bonferroni's post-test. Statistical significance was defined as P<0.05. GraphPad Prism 4 (GraphPad Software, San Diego, Calif.) was used for statistical analyses.

[5] = system: normal anesthetized dogs; assay: Renal, cardiovascular and neurohumoral effects of i.v. infusion at 50 ng/kg/minute for 75 minutes in normal anesthetized dogs; type: in vivo, dog
Experimental: CU-NP or CNP polypeptide was intravenously infused into normal anesthetized dogs at 50 ng/kg/minute for 75 minutes. Blood and urine samples were collected pre-infusion (pre-I), at 30 and 60 minutes of infusion, and post-infusion (post-I). Inulin clearance was used for assessment of glomerular filtration rate (GFR). The lithium clearance technique was used for measurement of proximal and distal fractional reabsorption of Na^+ (PFRNa and DFRNa, respectively). Comparisons at the latter three time points versus pre-I were made. Student's t-test was used when comparing results for two time points, whereas repeated measures ANOVA was used to compare four time points.

[6] = system: normal anesthetized dogs; assay: In vivo renal perfusion pressure, i.v. infusion at 14.14 pmol/kg/minute for 75 minutes; design: species or system dog; conditions: RPP estimated by MAP−RAP
Experimental: Studies were conducted to determine the in vivo actions of CNP, CU-NP and URO on renal perfusion pressure (RPP, as estimated by MAP-RAP), as RPP is a key determinant of renal function. Given the GFR-enhancing action of CU-NP, in vitro studies also were done to test the hypothesis that CU-NP (unlike CNP) also activates NPR-A, a potent renal acting NP receptor. Equimolar doses of CU-NP, human CNP, or human URO were intravenously infused at 14.14 pmol/kg/minute into 17 normal anesthetized dogs for 75 minutes. RPP was assessed at baseline and at 60 minutes of infusion. Data are expressed as mean±SEM. Clearances were measured from the 16th to the 45th minute and from the 46th to the 75th minute following initiation of peptide infusion. Within each group, 2-tailed paired t-test was used to compare RPP at 60 minutes of peptide infusion vs. baseline. Comparisons between groups were made by two-way ANOVA followed by Bonferroni post-test.

[7] = system: isolated canine glomeruli; assay: cGMP response in isolated canine glomeruli with or without NPR-A antagonist and NPR-B antagonist; type: cell-based; conditions: 10^−5 M, no antagonist
Experimental: as §1

[8] = 60 min of i.v. infusion at 14 pmol/kg/minute
[9] = 30 minutes of infusion, 50 ng/kg/minute i.v.
[10] = 60 minutes of infusion, 50 ng/kg/minute i.v.
[11] = 60 minutes of i.v. infusion at 14.14 pmol/kg/minute

## CC[C@H](C)[C@@H]1NC(=O)[C@H](CCCNC(=N)N)NC(=O)[C@H](CC(=O)O)NC(=O)[C@H](CC(C)C)NC(=O)[C@H](CCCCN)NC(=O)[C@H](CC(C)C)NC(=O)CNC(=O)[C@H](Cc2ccccc2)NC(=O)[C@@H](NC(=O)[C@H](CO)NC(=O)[C@H](CO)NC(=O)[C@H](CCCNC(=N)N)NC(=O)[C@H](CCCNC(=N)N)NC(=O)[C@H](CC(C)C)NC(=O)[C@H](CO)NC(=O)[C@H](CCCNC(=N)N)NC(=O)[C@@H]2CCCN2C(=O)[C@H](C)NC(=O)[C@@H](N)[C@@H](C)O)CSSC[C@@H](C(=O)N[C@@H](CC(N)=O)C(=O)N[C@@H](CO)C(=O)N[C@@H](Cc2ccccc2)C(=O)N[C@@H](CCCNC(=N)N)C(=O)N[C@@H](Cc2ccc(O)cc2)C(=O)O)NC(=O)CNC(=O)[C@H](CC(C)C)NC(=O)CNC(=O)[C@H](CO)NC(=O)[C@H](CCSC)NC(=O)[C@H](CO)NC(=O)CNC1=O [CU-NP] (H-TAPRSLRRSSCFGLKLDRIGSMSGLGCNSFRY-OH; disulfide 11-27)
[1]; end of infusion at 100 ng/kg/minute
  QTc interval: 329 ± 15 ms
[1]; pre-infusion
  QTc interval: 323 ± 6 ms

## BNP: human NP (natriuretic peptide) BNP
[2]; [8]
  Hematocrit (mean ± SEM): 40 ± 2 %
[2]; Baseline
  Hematocrit (mean ± SEM): 36 ± 1%

## CNP: human CNP, mature natriuretic polypeptide of 22 amino acids
[2]; [8]
  Hematocrit (mean ± SEM): 37 ± 1%
[2]; Baseline
  Hematocrit (mean ± SEM): 36 ± 1%
[3]
  cGMP (mean ± SEM): 0.0019 ± 0.0005 fmol/µg
[4]; in the presence of the NPR-B antibody (1:100)
  cGMP: 0.08 ± 0.01 pmol/mL
[4]; no antibody
  cGMP: 0.17 ± 0.04 pmol/mL
[5]; [9]
  DFRNa+: 98 ± 0.8%
  GFR: 42 ± 4 mL/min
  Na^+ excretion: 56 ± 21 μEq/min
  PFRNa+: 67 ± 3%
  Plasma cGMP: 11 ± 1 pmol/mL
  Renal generation of cGMP: 452 ± 202 pmol/min
  Urinary cGMP excretion: 1119 ± 102 pmol/min
  Urine flow: 0.3 ± 0.06 mL/min
[5]; [10]
  DFRNa+: 98 ± 0.5%
  GFR: 39 ± 3 mL/min
  Na^+ excretion: 71 ± 8 μEq/min
  PFRNa+: 51 ± 7 %
  Plasma cGMP: 12 ± 1 pmol/mL
  Renal generation of cGMP: 603 ± 199 pmol/min
  Urinary cGMP excretion: 1338 ± 81 pmol/min
  Urine flow: 0.4 ± 0.02 mL/min
[5]; post-infusion
  DFRNa+: 99 ± 0.2%
  GFR: 44 ± 3 mL/min
  Na^+ excretion: 30 ± 8 μEq/min
  PFRNa+: 68 ± 3 %
  Plasma cGMP: 12 ± 1 pmol/mL
  Renal generation of cGMP: 582 ± 91 pmol/min
  Urinary cGMP excretion: 1090 ± 76 pmol/min
  Urine flow: 0.3 ± 0.04 mL/min
[5]; pre-infusion
  DFRNa+: 99 ± 0.5%
  GFR: 38 ± 4 mL/min
  Na^+ excretion: 16 ± 6 μEq/min
  PFRNa+: 83 ± 3%
  Plasma cGMP: 8 ± 1 pmol/mL
  Renal generation of cGMP: 491 ± 65 pmol/min
  Urinary cGMP excretion: 830 ± 74 pmol/min
  Urine flow: 0.1 ± 0.02 mL/min
[6]; [11]
  RPP (mean ± SEM): 123 ± 8 mmHg
[6]; Pre-I
  RPP (mean ± SEM): 120 ± 4 mmHg

## URO: human urodilatin, natriuretic polypeptide (TAPRSLRRSSCFGGRMDRIGAQSGLGCNSFRY; ends and bridges not checked; cysteine pairing not given here; UniProt P01160 120-151, looked up)
[2]; [8]
  Hematocrit (mean ± SEM): 40 ± 1 %
[2]; Baseline
  Hematocrit (mean ± SEM): 37 ± 1%
[3]
  cGMP (mean ± SEM): 0.69 ± 0.07 fmol/µg
[7]
  cGMP: 0.54 ± 0.10 fmol/µg
[6]; [11]
  RPP (mean ± SEM): 119 ± 4 mmHg
[6]; Pre-I
  RPP (mean ± SEM): 127 ± 4 mmHg
